Reference: patent publication US8530490B2, “Uracil compound or salt thereof having human deoxyuridine triphosphatase inhibitory activity” (Taiho Pharmaceutical Co., Ltd., priority 2008, dated 2013)

target: human dUTPase (Homo sapiens (Human), UniProt P33316); experiment: Human dUTPase inhibitory effect: production of [5-3H]dUMP from [5-3H]dUTP, measured by HPLC with flow scintillation; format: biochemical; details: [5-3H]dUMP production from [5-3H]dUTP, 37° C., 15 minutes
Summary of the method: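 E. coli-expressed purified human dUTPase reacted with 1 μM dUTP stock containing [5-3H]dUTP in Tris pH 7.4, MgCl2, 2-mercaptoethanol and albumin, 15 min at 37° C; stopped by 1 min at 100° C. [5-3H]dUMP formed was separated by reversed-phase ion-pair HPLC and quantified by flow scintillation versus water control.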

Chain of human dUTPase (P33316 94-252): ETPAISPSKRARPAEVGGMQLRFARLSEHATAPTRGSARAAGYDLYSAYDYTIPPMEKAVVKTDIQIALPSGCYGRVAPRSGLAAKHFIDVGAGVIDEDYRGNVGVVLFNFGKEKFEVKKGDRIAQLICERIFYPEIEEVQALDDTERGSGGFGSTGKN

Compound	IC50 [nM]
CC[C@@H](NS(=O)(=O)c1ccc(Cn2ccc(=O)[nH]c2=O)cc1)c1ccc(F)c(OCC2CC2)c1 [Example 97, (R)—N-(1-(3-(cyclopropylmethoxy)-4-fluorophenyl)propyl)-4-((2,4-dioxo-3,4-dihydropyrimidin-1(2H)-yl)methyl)benzenesulfonamide]	580
C[C@@H](NS(=O)(=O)CCCn1ccc(=O)[nH]c1=O)c1ccc(F)c(OCC2CC2)c1 [Example 98, (R)—N-(1-(3-(cyclopropylmethoxy)-4-fluorophenyl)ethyl)-3-(2,4-dioxo-3,4-dihydropyrimidin-1(2H)-yl)propane-1-sulfonamide]	660
CC[C@@](O)(CNS(=O)(=O)CCCn1ccc(=O)[nH]c1=O)c1ccc(F)c(OC2CCCC2)c1 [Example 99, (S)—N-(2-(3-(cyclopentyloxy)-4-fluorophenyl)-2-hydroxybutyl)-3-(2,4-dioxo-3,4-dihydroxypyrimidin-1(2H)-yl)propane-1-sulfonamide]	1810
C[C@@H](NS(=O)(=O)CC/C=C/Cn1ccc(=O)[nH]c1=O)c1ccc(F)c(OCC2CC2)c1 [Example 100, (R,E)-N-(1-(3-(cyclopropylmethoxy)-4-fluorophenyl)ethyl)-5-(2,4-dioxo-3,4-dihydropyrimidin-1(2H)-yl)pent-3-ene-1-sulfonamide]	40
C[C@@H](NS(=O)(=O)CCCCCn1ccc(=O)[nH]c1=O)c1ccc(F)c(OCC2CC2)c1 [Example 101, (R)—N-(1-(3-(cyclopropylmethoxy)-4-fluorophenyl)ethyl)-5-(2,4-dioxo-3,4-dihydropyrimidin-1(2H)-yl)pentane-1-sulfonamide]	70
O=c1ccn(CCCCCS(=O)(=O)NCc2cccc(OCC3CC3)c2)c(=O)[nH]1 [Example 103, N-(3-(cyclopropylmethoxy)benzyl)-5-(2,4-dioxo-3,4-dihydropyrimidin-1(2H)-yl)pentane-1-sulfonamide]	520
C[C@@H](NS(=O)(=O)CCCn1ccc(=O)[nH]c1=O)c1cccc(OC2CCCC2)c1 [Example 104, (R)—N-(1-(3-(cyclopentyloxy)phenyl)ethyl)-3-(2,4-dioxo-3,4-dihydropyrimidin-1(2H)-yl)propane-1-sulfonamide]	1460
C[C@@H](NS(=O)(=O)CC/C=C/Cn1ccc(=O)[nH]c1=O)c1cccc(OC2CCCC2)c1 [Example 105, (R,E)-N-(1-(3-(cyclopentyloxy)phenyl)ethyl)-5-(2,4-dioxo-3,4-dihydropyrimidin-1(2H)-yl)pent-3-ene-1-sulfonamide]	170
C[C@@H](NS(=O)(=O)CCCCCn1ccc(=O)[nH]c1=O)c1cccc(OC2CCCC2)c1 [Example 106, (R)—N-(1-(3-(cyclopentyloxy)phenyl)ethyl)-5-(2,4-dioxo-3,4-dihydropyrimidin-1(2H)-yl)pentane-1-sulfonamide]	120
C[C@@H](NS(=O)(=O)CCCn1ccc(=O)[nH]c1=O)c1cccc(OCC(F)F)c1 [Example 107, (R)—N-(1-(3-(2,2-difluoroethoxy)phenyl)ethyl)-3-(2,4-dioxo-3,4-dihydropyrimidin-1(2H)-yl)propane-1-sulfonamide]	1720
C[C@@H](NS(=O)(=O)CCCn1ccc(=O)[nH]c1=O)c1cccc(OCC2CC2)c1 [Example 108, (R)—N-(1-(3-(cyclopropylmethoxy)phenyl)ethyl)-3-(2,4-dioxo-3,4-dihydropyrimidin-1(2H)-yl)propane-1-sulfonamide]	1710
C[C@@H](NS(=O)(=O)CCCCCn1ccc(=O)[nH]c1=O)c1cccc(OCC2CC2)c1 [Example 109, (R)—N-(1-(3-(cyclopropylmethoxy)phenyl)ethyl)-5-(2,4-dioxo-3,4-dihydropyrimidin-1(2H)-yl)pentane-1-sulfonamide]	120
C[C@@H](NS(=O)(=O)CC/C=C/Cn1ccc(=O)[nH]c1=O)c1cccc(OCC2CC2)c1 [Example 110, (R,E)-N-(1-(3-(cyclopropylmethoxy)phenyl)ethyl)-5-(2,4-dioxo-3,4-dihydropyrimidin-1(2H)-yl)pent-3-ene-1-sulfonamide]	50
